# Measurements taken from patent US7705047B2, “Amidoacetonitrile derivatives” (Novartis AG, priority 2003, dated 2010).
# System: Trichostrongylus colubriformis and Haemonchus contortus
# Experiment: In-vivo test on Trichostrongylus colubriformis and Haemonchus contortus on Mongolian gerbils using peroral application
# Design: species or system Mongolian gerbils (Meriones unguiculatus)
# Settings: Mongolian gerbils infected with T. colubriformis and H. contortus, dose of 16 mg/kg, worm count 3 days after treatment
# Source text: 1. In-vivo Test on Trichostrongylus colubriformis and Haemonchus contortus on Mongolian Gerbils (Meriones unguiculatus) using Peroral Application Six to eight week old Mongolian gerbils are infected through a stomach tube with ca. 2000 third instar larvae each of T. colubriformis and H. contortus. […] On day 9 (3 days after treatment), when most of the H. contortus that are still present are late 4th instar larvae and most of the T. colubriformis are immature adults, the gerbils are killed in order to count the worms. The efficacy is calculated as the % reduction of the number of worms in each gerbil, compared with the geometric average of number of worms from 6 infected and untreated gerbils.
compound,measurement,value
"CC(C#N)(COc1cc(C#N)ccc1Oc1ccc(Cl)cc1Cl)NC(=O)c1ccc(OC(F)(F)F)cc1 (stereo not shown) [Compound 1.47, N-[1-cyano-1-methyl-2-(5-cyano-2-{2,4-dichlorophenoxy}-phenoxy)-ethyl]-4-trifluoromethoxybenzamide]",elimination of the nematode infestation,complete elimination
